The values below come from US5912251A, “Metabolically inert anti-inflammatory and anti-tumor antifolates” (priority 1998, dated 1999).

For data set [1], the system named is human leukemia and human solid tumor cells. The experiment in a line: inhibitory activity against the growth of human cancer cells in culture. Format: cell-based.
The test system of the next data set is CCRF-CEM. Kind of data set: Human Disease Oriented in vitro Antitumor Screen (NCI), total growth inhibition, CCRF-CEM. Format: cell-based. The settings on record: Leukemia. The method, then: (§1) Compound 1 was evaluated for its anti-tumor activity using the Human Disease Oriented in vitro Antitumor Screen at the National Cancer Institute.
Data set [2] relates to rabbit liver aldehyde oxidase. The experiment in a line: incubation with rabbit liver aldehyde oxidase (conversion to 7-hydroxy derivative). Format: in vitro ADME.
The test system of another data set is MOLT-4. The experiment in a line: Human Disease Oriented in vitro Antitumor Screen (NCI), total growth inhibition, MOLT-4. Format: cell-based. The settings on record: Leukemia. The method, then:
as §1

In data set [3] the target is T1, human dihydrofolate Reductase (Homo sapiens, UniProt P00374).
T1 sequence (P00374 1-187): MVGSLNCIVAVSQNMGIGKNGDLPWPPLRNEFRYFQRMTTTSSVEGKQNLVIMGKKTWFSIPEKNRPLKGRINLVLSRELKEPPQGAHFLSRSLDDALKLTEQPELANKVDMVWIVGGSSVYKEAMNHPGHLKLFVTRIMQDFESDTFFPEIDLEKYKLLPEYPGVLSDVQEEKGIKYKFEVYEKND
The experiment in a line: inhibition of human dihydrofolate reductase. The class given is biochemical. The settings on record: human enzyme; read-out: I50. The text has this:
In order to unravel the mechanism of action of 1 and 1 e they were examined as inhibitors of human dihydrofolate Reductase.

In a further data set the test system is MCF7-ADR-RES. The experiment in a line: Human Disease Oriented in vitro Antitumor Screen (NCI), total growth inhibition, MCF7-ADR-RES. The class given is cell-based. The settings on record: Breast Cancer. The method, then:
as §1

For data set [4], the system named is folylpolyglutamate synthetase. Kind of data set: evaluation in vitro using folylpolyglutamate synthetase (polyglutamylation). Format: in vitro ADME.
The test system of a further data set is SF 539. Kind of data set: Human Disease Oriented in vitro Antitumor Screen (NCI), total growth inhibition, SF 539. Format: cell-based. The conditions noted are these: CNS Cancer. The protocol: as §1
The test system of a further data set is RPMI 8226. Kind of data set: Human Disease Oriented in vitro Antitumor Screen (NCI), total growth inhibition, RPMI 8226. Format: cell-based. The conditions noted are these: Leukemia. The protocol: as §1
For data set [5], the system named is carboxypeptidase derived from Pseudomonad sp. The text has this:
(§2) As part of a continuing program aimed at the development of less toxic and more specific antifolate drugs for the treatment of human cancers, the pteridine ring of the experimental anticancer drug methylene-10-deazaaminopterin [MDAM] was replaced with a quinazoline ring.

The test system of another data set is MCF7. The experiment in a line: Human Disease Oriented in vitro Antitumor Screen (NCI), total growth inhibition, MCF7. Format: cell-based. The conditions noted are these: Breast Cancer. The protocol: as §1
The next data set relates to SR. Kind of data set: Human Disease Oriented in vitro Antitumor Screen (NCI), total growth inhibition, SR. The class given is cell-based. The conditions noted are these: Leukemia. The protocol: as §1
Data set [6] concerns leukemia cells that are resistant to MTX by virtue of defective polyglutamylation. The experiment in a line: growth inhibition of MTX-resistant leukemia cells with defective polyglutamylation vs wild type CCRF-CEM. The settings on record: defective polyglutamylation line compared to wild type MTX sensitive parental CCRF-CEM. Format: cell-based.
Text: as §2

A further data set relates to K562. Kind of data set: Human Disease Oriented in vitro Antitumor Screen (NCI), total growth inhibition, K562. The conditions noted are these: Leukemia. The class given is cell-based. The method, then:
as §1

Another data set concerns allergic rabbits. Kind of data set: allergen-induced asthmatic responses and bronchial hyper-responsiveness (BHR) in allergic rabbits. The class given is in vivo, New Zealand White rabbit. The settings on record: for Asthmatic Response, Early: percent inhibition from control / Asthmatic Response, Late: percent inhibition from control / BHR (bronchial hyper-responsiveness): percent inhibition from control: aerosol 5 mg/ml; for Asthmatic Response, Early: percent inhibition from control: early-phase area under the curve; for Asthmatic Response, Late: percent inhibition from control: late-phase area under the curve; for BHR (bronchial hyper-responsiveness): percent inhibition from control: repeat histamine challenge 24 hour later. The protocol:
Experimental Model: Induction of Asthma in Rabbits. New Zealand White Pasturella-free rabbit litter mates were bred and immunized ip within 24 hour of birth with 312 AU dust mite allergen extract [Berkeley Biological, Berkeley, Calif.] in 10% kaolin once every week for one month, then biweekly until the age of 4 months. Mustafa and co-workers used this rabbit model as described in American Journal of Physiology [266, 271-277, 1994]. These allergic animals preferentially produce allergen-specific IgE antibody and typically respond to aeroallergen challenge with an early and late phase asthmatic response and show increased bronchial hyper responsiveness (BHR).
Allergen, Theophylline and Antifolate Challenges: These experiments were carried out as described by Mustafa and co-workers in the Journal, Agents and Actions in 1992 [37, 168-170, 1992 ]. Briefly, allergic rabbits were challenged with ragweed allergen aerosol (10,000 PNU/mL) as described until there was an approximate 50% reduction in dynamic compliance (Cdyn). Pulmonary function was measured at 15 minutes intervals for 6 hours. The rabbit was challenged with indicated antifolates [5 mg/mL, aerosolized for 4 minutes ] followed immediately by the same total dose of allergen. Pulmonary function measurements as described by Mustafa and co-workers in the cited reference were carried out for 6 hours.
To assess the effect of antifolates on allergen-induced changes in the airways, the area under the curve for early and late -phase response was digitalized by computer-assisted plenometry for each rabbit during the six hour time period.

For data set [7], the system named is selected human tumor cells. The experiment in a line: Human Disease Oriented in vitro Antitumor Screen (NCI), panel as a whole. The class given is cell-based. The protocol: Compound 1 was evaluated for its anti-tumor activity using the Human Disease Oriented in vitro Antitumor Screen at the National Cancer Institute. […] This unexpected finding may be due to the inability of 1 to undergo metabolic transformation.

pIC50: −log10 of the molar value.

With `C=C(CC(NC(=O)c1ccc(CCc2ccc3nc(N)nc(N)c3c2)cc1)C(=O)O)C(=O)O` (stereo not shown) [Compound 1, 5,8,10-trideaza-4'-methyleneaminopterin], the “inhibitory activity against the growth of human cancer cells relative to MTX or MDAM” value in [1] was “strikingly more active than either MTX or MDAM”. Also, in data set [1] (therapeutically relevant concentrations), the “killing of human leukemia and solid tumor cells in culture” value was “able to kill a large number of human luekemia and human solid tumor cells in culture at therapeutically relevant concentrations”. Further, the “Log 10 TGI” value is reported as < -8.00 in the data set with CCRF-CEM; -7.4 in the data set on MOLT-4; -7.26 in the data set with MCF7-ADR-RES; -6.3 in the data set on SF 539; -7.44 in the data set on RPMI 8226; -6.32 in the data set on MCF7. Further, the “Log 10 TGI” value in the data set with SR and in the data set with K562 was < -8.00 in each case. In data set [2], the “conversion to 7-hydroxy derivative by aldehyde oxidase” value is “completely inert”. Moreover, the pIC50 in [3] is 7.18. Besides, the elaboration to polyglutamates entry in data set [4] was “not capable of elaboration to its polyglutamates”. In addition, the “removal of the 4-methyleneglutamate moiety by carboxypeptidase” value in data set [5] is listed as “failed to remove the 4-methyleneglutamate moiety”. The “collateral sensitivity: times more sensitive in inhibiting the growth of MTX-resistant leukemia cells” value in [6] is 4-5 times. Further, the “Asthmatic Response, Early: percent inhibition from control” value with allergic rabbits amounted to 52%. Moreover, the “Asthmatic Response, Late: percent inhibition from control” value with allergic rabbits is 58%. Also, the “BHR (bronchial hyper-responsiveness): percent inhibition from control” value (“BHR … percent inhibition from control” for short) with allergic rabbits was 47%. Besides, in the data set with allergic rabbits (relative to MTX and theophylline), the “anti-asthmatic activity (in words)” value is “not only superior to MTX but also to the well known anti-asthmatic drug theophylline in both early and late asthmatic responses and bronchial hyper responsiveness (BHR)”. Besides, the “killing of cancer cells (in words)” value in [7] (NCI in vitro antitumor screen) is recorded as “able to kill cancer cells with remarkable potency”. Besides, the “times more effective than MTX in this panel” value in [7] (total growth inhibition, NCI panel of Table 2) is listed as 1,000-10,000 times.
As to `C=C(CC(NC(=O)c1ccc(N(C)Cc2ccc3nc(N)nc(N)c3c2)cc1)C(=O)O)C(=O)O` (stereo not shown) [Compound 1d], in data set [5], the “removal of the 4-methyleneglutamate moiety by carboxypeptidase” value was “failed to remove the 4-methyleneglutamate moiety”.
`CN(Cc1cnc2nc(N)nc(N)c2n1)c1ccc(C(=O)N[C@@H](CCC(=O)O)C(=O)O)cc1` [MTX, methotrexate, reference compound]: the “Log 10 TGI” value in the data set on CCRF-CEM is recorded as -3.77; in the data set on MOLT-4, -3.55; in the data set with SF 539, -3.66; with RPMI 8226, -3.66; in the data set on SR it was -3.25; with K562, -3.3. Further, the “Asthmatic Response, Early: percent inhibition from control” value in the data set on allergic rabbits is given as 29%. For the same compound, in the data set on allergic rabbits, the “Asthmatic Response, Late: percent inhibition from control” value was found to be 37%. Moreover, the “BHR … percent inhibition from control” value in the data set on allergic rabbits was 32%.
For `Cn1c(=O)c2[nH]cnc2n(C)c1=O` [Theophylline, theophylline], in the data set with allergic rabbits, the “Asthmatic Response, Early: percent inhibition from control” value is 45%; the “Asthmatic Response, Late: percent inhibition from control” value turned out to be 49%; the “BHR … percent inhibition from control” value came to 39%.
